# Experimental data taken from BindingDB's records for doi:10.7270/Q21V5H4F (n/a, 1992).
# Target: HIV-1 RT (reverse transcriptase)
# Assay: Inhibitory concentration against HIV-1 RT was determined
smiles,measurement,value
O=C(C[C@H]1C(=O)Nc2ccccc2-c2cccn21)OCc1ccccc1,IC50,115 nM
